Values of other authors, collected in patent US6727058B2, “Intergrase assay” (priority 1998, dated 2004).

Biological target: lacR (Escherichia coli, UniProt P03023)
Details: association constant; Barkley & Bourgeios 1980

Sequence of lacR (P03023 whole entry): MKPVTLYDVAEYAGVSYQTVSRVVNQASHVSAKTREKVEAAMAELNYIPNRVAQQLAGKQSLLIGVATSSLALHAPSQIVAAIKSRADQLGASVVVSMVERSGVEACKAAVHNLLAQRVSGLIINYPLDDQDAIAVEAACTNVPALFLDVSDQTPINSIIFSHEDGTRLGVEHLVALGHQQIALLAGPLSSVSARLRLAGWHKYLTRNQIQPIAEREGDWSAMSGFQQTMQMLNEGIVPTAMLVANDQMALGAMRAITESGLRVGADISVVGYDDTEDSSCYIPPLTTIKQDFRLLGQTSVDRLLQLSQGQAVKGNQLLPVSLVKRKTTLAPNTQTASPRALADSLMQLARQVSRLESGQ

In the case of `CC(C)S[C@@H]1O[C@H](CO)[C@H](O)[C@H](O)[C@H]1O` [IPTG], the “ka of lacR complexing IPTG” value is given as “≈ 10^6 M^−1”.
